These compounds were tested against Histone deacetylase 2 (Homo sapiens, UniProt Q92769) (assay: Inhibition of full-length recombinant human C-terminal GST tagged HDAC2 expressed in Sf9 insect cells using aminoluciferin peptide substrate at 100 nM preincubated for 3 hrs followed by substrate addition and measured after 30 mins by HDAC-Glo I/II chemiluminescence assay). Settings: time 3.5 hrs.
Histone deacetylase 2, sequence (Q92769 whole entry): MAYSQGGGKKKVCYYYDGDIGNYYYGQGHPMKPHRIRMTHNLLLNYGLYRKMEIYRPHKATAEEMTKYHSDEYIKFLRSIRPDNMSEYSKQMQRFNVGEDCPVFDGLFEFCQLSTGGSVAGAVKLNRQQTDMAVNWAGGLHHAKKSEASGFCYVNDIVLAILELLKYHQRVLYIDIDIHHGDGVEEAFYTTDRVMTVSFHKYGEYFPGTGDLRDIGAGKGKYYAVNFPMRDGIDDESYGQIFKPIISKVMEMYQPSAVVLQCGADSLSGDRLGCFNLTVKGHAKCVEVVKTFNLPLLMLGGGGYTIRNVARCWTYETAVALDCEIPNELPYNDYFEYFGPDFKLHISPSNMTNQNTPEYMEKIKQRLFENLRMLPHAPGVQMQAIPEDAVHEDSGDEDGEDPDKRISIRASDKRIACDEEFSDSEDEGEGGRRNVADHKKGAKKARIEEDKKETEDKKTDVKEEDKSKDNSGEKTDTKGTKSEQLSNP

inhibition | SMILES
0% | Nc1ccc(-c2ccccc2)cc1NC(=O)CCc1cn(CCc2cccc3ccccc23)nn1
2% | CCc1ccc(Cn2cc(-c3ccc(C(=O)Nc4cc(-c5cccs5)ccc4N)s3)nn2)cc1
0% | Nc1ccc(-c2cccs2)cc1NC(=O)c1cn(-c2ccc(Br)cc2)nn1
13% | Cc1ccccc1CCn1cc(CCC(=O)Nc2cc(-c3cccs3)ccc2N)nn1
0% | Nc1ccc(-c2ccc(F)cc2)cc1NC(=O)CCc1cn(CC23CC4CC(CC(C4)C2)C3)nn1
15% | Cc1csc(CCn2cc(C(=O)Nc3cc(-c4cccs4)ccc3N)nn2)n1
22% | Cc1ccc(CCn2cc(-c3ccc(C(=O)Nc4cc(-c5cccs5)ccc4N)s3)nn2)cc1
24% | Cc1cccc(C)c1NC(=O)Cn1cc(C(=O)Nc2cc(-c3ccsc3)ccc2N)nn1
0% | Cc1ccccc1CCn1cc(CCC(=O)Nc2cc(-c3cccnc3)ccc2N)nn1
0% | Nc1ccc(-c2ccccc2)cc1NC(=O)CCc1cn(CCCCC(=O)O)nn1
6% | Nc1ccc(-c2ccc(F)cc2)cc1NC(=O)CCc1cn(CCCCCCC(=O)O)nn1
9% | Cc1cccc(C)c1NC(=O)Cn1cc(C(=O)Nc2cc(-c3ccccc3)ccc2N)nn1
0% | Nc1ccc(-c2cccs2)cc1NC(=O)c1cccc(-c2cn(CCc3cccc4ccccc34)nn2)c1
5% | Nc1ccc(-c2cccs2)cc1NC(=O)c1ccc(-c2cn(Cc3ccc(OC(F)(F)F)cc3)nn2)cc1
5% | Cc1cccc(CCn2cc(-c3cccc(C(=O)Nc4cc(-c5cccs5)ccc4N)c3)nn2)c1
29% | Cc1csc(CCn2cc(CCC(=O)Nc3cc(-c4ccccc4)ccc3N)nn2)n1
44% | Nc1ccc(-n2cc(-c3ccc(C(=O)Nc4cc(-c5cccs5)ccc4N)s3)nn2)cc1
0% | Nc1ccc(-c2cccs2)cc1NC(=O)CCc1cn(CCC2CCCC2)nn1
6% | Nc1ccc(-c2cccs2)cc1NC(=O)c1cccc(-c2cn(CCc3c[nH]c4ccccc34)nn2)c1
9% | COc1ccc(-n2cc(CCC(=O)Nc3cc(-c4cccnc4)ccc3N)nn2)cc1
0% | Nc1ccc(-c2ccsc2)cc1NC(=O)CCc1cn(CCC23CC4CC(CC(C4)C2)C3)nn1
16% | COc1ccc(CCn2cc(C(=O)Nc3cc(-c4ccc(F)cc4)ccc3N)nn2)cc1
23% | Nc1ccc(-c2ccsc2)cc1NC(=O)CCc1cn(CCc2ccccc2[N+](=O)[O-])nn1

inhibition | SMILES
0% | Nc1ccc(-c2ccsc2)cc1NC(=O)CCc1cn(Cc2ccc(-c3ccccc3)cc2)nn1
0% | Nc1ccc(-c2cccnc2)cc1NC(=O)CCc1cn(CCc2ccccc2C(F)(F)F)nn1
1% | Nc1ccc(-c2ccc(F)cc2)cc1NC(=O)c1cn(CCc2ccsc2)nn1
27% | Nc1ccc(-c2ccc(F)cc2)cc1NC(=O)c1cn(Cc2ccc3ccccc3n2)nn1
1% | Nc1ccc(-c2ccccc2)cc1NC(=O)CCc1cn(CCc2cccc(F)c2)nn1
0% | Nc1ccc(-c2ccc(F)cc2)cc1NC(=O)CCc1cn(Cc2cccc(-c3ccccc3)c2)nn1
22% | Nc1ccc(-c2ccc(F)cc2)cc1NC(=O)c1cn(CCCCC(=O)O)nn1
0% | Nc1ccc(-c2cccs2)cc1NC(=O)c1cn(CC(=O)Nc2ccc(F)cc2)nn1
0% | Nc1ccc(-c2ccsc2)cc1NC(=O)c1cn(CC2CCCCC2)nn1
0% | Nc1ccc(-c2cccs2)cc1NC(=O)c1ccc(-c2cn(-c3ccc(I)cc3)nn2)cc1
2% | Nc1ccc(-c2ccsc2)cc1NC(=O)CCc1cn(Cc2cccc3ccccc23)nn1
17% | Nc1ccc(-c2cccs2)cc1NC(=O)c1cn(CCc2ccc([N+](=O)[O-])cc2)nn1
6% | Nc1ccc(-c2ccc(F)cc2)cc1NC(=O)c1cn(CC(=O)c2ccccc2)nn1
0% | Cc1ccccc1CCn1cc(C(=O)Nc2cc(-c3ccsc3)ccc2N)nn1
0% | Nc1ccc(-c2cccs2)cc1NC(=O)c1cccc(-c2cn(CCCCCc3ccccc3)nn2)c1
17% | COc1ccc(Cn2cc(C(=O)Nc3cc(-c4cccs4)ccc3N)nn2)cc1
0% | Nc1ccc(-c2cccs2)cc1NC(=O)c1ccc(-c2cn(-c3ccc(Br)cc3)nn2)cc1
0% | Cc1ccc(-n2cc(C(=O)Nc3cc(-c4ccsc4)ccc3N)nn2)cc1C
14% | Nc1ccc(-c2cccs2)cc1NC(=O)c1ccc(-c2cn(CCCCCCCC(=O)O)nn2)s1
2% | Nc1ccc(-c2ccccc2)cc1NC(=O)CCc1cn(-c2ccccc2-c2ccccc2)nn1
4% | Cc1ccc(CCn2cc(-c3cccc(C(=O)Nc4cc(-c5cccs5)ccc4N)c3)nn2)cc1
0% | Nc1ccc(-c2ccc(F)cc2)cc1NC(=O)CCc1cn(Cc2ccc(Oc3ccccc3)cc2)nn1
5% | Nc1ccc(-c2cccs2)cc1NC(=O)c1ccc(-c2cn(/C=C/c3ccccc3)nn2)s1

The remaining lines, values behind:

SMILES | inhibition
Nc1ccc(-c2ccc(F)cc2)cc1NC(=O)c1cn(CCc2ccccc2)nn1 | 17%
Nc1ccc(-c2cccs2)cc1NC(=O)c1cn(CCN2CCOCC2)nn1 | 0%
Nc1ccc(-c2ccccc2)cc1NC(=O)c1cn(CS(=O)(=O)c2ccccc2)nn1 | 0%
Nc1ccc(-c2cccs2)cc1NC(=O)c1ccc(-c2cn(CCc3ccc(F)cc3)nn2)s1 | 18%
Cc1ccc(CCn2cc(CCC(=O)Nc3cc(-c4ccsc4)ccc3N)nn2)cc1 | 24%
Nc1ccc(-c2ccsc2)cc1NC(=O)c1cn(Cc2ccc3ccccc3n2)nn1 | 19%
Nc1ccc(-c2cccs2)cc1NC(=O)CCc1cn(Cc2nc3ccccc3[nH]2)nn1 | 19%
Nc1ccc(-c2cccs2)cc1NC(=O)CCc1cn(CCc2cccc3ccccc23)nn1 | 0%
Cc1ccc(CCn2cc(CCC(=O)Nc3cc(-c4cccnc4)ccc3N)nn2)cc1 | 18%
Nc1ccc(-c2cccs2)cc1NC(=O)CCc1cn(C[S+]([O-])c2ccccc2)nn1 (stereo not given) | 17%
Nc1ccc(-c2ccsc2)cc1NC(=O)CCc1cn(Cc2nc3ccccc3[nH]2)nn1 | 25%
Nc1ccc(-c2cccs2)cc1NC(=O)c1ccc(-c2cn(CCC3CCCCC3)nn2)s1 | 0%
Nc1ccc(-c2ccc(F)cc2)cc1NC(=O)CCc1cn(CC2CCCCC2)nn1 | 1%
Nc1ccc(-c2ccccc2)cc1NC(=O)CCc1cn(Cc2ccc3ccccc3n2)nn1 | 18%
Cc1csc(CCn2cc(CCC(=O)Nc3cc(-c4cccnc4)ccc3N)nn2)n1 | 6%
Nc1ccc(-c2ccccc2)cc1NC(=O)c1cn(Cc2ccc3ccccc3c2)nn1 | 1%
Nc1ccc(-c2cccs2)cc1NC(=O)c1ccc(-c2cn(CCc3cccc(F)c3)nn2)s1 | 24%
COc1ccc(-n2cc(CCC(=O)Nc3cc(-c4ccccc4)ccc3N)nn2)cc1 | 11%
Nc1ccc(-c2cccs2)cc1NC(=O)c1cn(CCc2ccccn2)nn1 | 0%
Nc1ccc(-c2cccs2)cc1NC(=O)CCc1cn(Cc2ccc3ccccc3n2)nn1 | 22%
Nc1ccc(-c2cccnc2)cc1NC(=O)CCc1cn(CCc2cccc(F)c2)nn1 | 13%
Nc1ccc(-c2ccccc2)cc1NC(=O)c1cn(CCc2ccc([N+](=O)[O-])cc2)nn1 | 0%
Nc1ccc(-c2cccs2)cc1NC(=O)c1cn(CCc2ccccc2C(F)(F)F)nn1 | 5%
Nc1ccc(-c2ccsc2)cc1NC(=O)c1cn(Cc2cccc(-c3ccccc3)c2)nn1 | 0%
Nc1ccc(-c2cccs2)cc1NC(=O)c1cccc(-c2cn(CCc3ccc([N+](=O)[O-])cc3)nn2)c1 | 1%

SMILES | inhibition
Nc1ccc(-c2cccs2)cc1NC(=O)c1cn(CCc2ccc(C(F)(F)F)cc2)nn1 | 9%
Nc1ccc(-c2ccc(F)cc2)cc1NC(=O)CCc1cn(Cc2ccc(OC(F)(F)F)cc2)nn1 | 0%
COc1ccc(CCn2cc(CCC(=O)Nc3cc(-c4ccccc4)ccc3N)nn2)cc1 | 17%
Nc1ccc(-c2cccnc2)cc1NC(=O)CCc1cn(-c2ccc(I)cc2)nn1 | 1%
COc1ccccc1CCn1cc(C(=O)Nc2cc(-c3ccccc3)ccc2N)nn1 | 0%
Nc1ccc(-c2cccs2)cc1NC(=O)c1cn(CC23CC4CC(CC(C4)C2)C3)nn1 | 0%
COc1ccc(Cn2cc(CCC(=O)Nc3cc(-c4cccs4)ccc3N)nn2)cc1 | 10%
COc1ccc(CCn2cc(-c3cccc(C(=O)Nc4cc(-c5cccs5)ccc4N)c3)nn2)cc1 | 1%
Cc1cccc(CCn2cc(C(=O)Nc3cc(-c4ccc(F)cc4)ccc3N)nn2)c1 | 10%
Nc1ccc(-c2ccccc2)cc1NC(=O)CCc1cn(CCN2CCOCC2)nn1 | 0%
Cc1ccccc1CCn1cc(C(=O)Nc2cc(-c3cccs3)ccc2N)nn1 | 0%
Cc1ccc(CCn2cc(CCC(=O)Nc3cc(-c4cccs4)ccc3N)nn2)cc1 | 30%
Nc1ccc(-c2ccccc2)cc1NC(=O)CCc1cn(CCC2CCCCC2)nn1 | 0%
Nc1ccc(-c2ccccc2)cc1NC(=O)c1cn(CCc2ccc(-c3ccccc3)cc2)nn1 | 0%
Nc1ccc(-c2ccc(F)cc2)cc1NC(=O)c1cn(CCCc2ccccc2)nn1 | 21%
Nc1ccc(-c2ccc(F)cc2)cc1NC(=O)c1cn(Cc2ccc(Oc3ccccc3)cc2)nn1 | 5%
Nc1ccc(-c2ccccc2)cc1NC(=O)c1cn(CCc2ccc(F)cc2)nn1 | 0%
Nc1ccc(-c2ccsc2)cc1NC(=O)c1cn(CCCCC(=O)O)nn1 | 0%
Nc1ccc(-c2ccsc2)cc1NC(=O)c1cn(CCc2cccc([N+](=O)[O-])c2)nn1 | 1%
COc1ccc(Cn2cc(CCC(=O)Nc3cc(-c4cccnc4)ccc3N)nn2)cc1 | 10%
Nc1ccc(-c2ccccc2)cc1NC(=O)c1cn(Cc2cccc(C(=O)O)c2)nn1 | 0%
Nc1ccc(-c2ccc(F)cc2)cc1NC(=O)CCc1cn(CS(=O)(=O)c2ccccc2)nn1 | 13%
Nc1ccc(-c2cccs2)cc1NC(=O)c1ccc(-c2cn(Cc3cccc(-c4ccccc4)c3)nn2)s1 | 0%
Nc1ccc(-c2ccsc2)cc1NC(=O)c1cn(CCc2ccsc2)nn1 | 0%

Source: ChEMBL document CHEMBL5390237, “Discovery of Selective Histone Deacetylase 1 and 2 Inhibitors: Screening of a Focused Library Constructed by Click Chemistry, Kinetic Binding Analysis, and Biological Evaluation” (J Med Chem, 2023)
